Test results from patent US8946264B2, “Pyridine derivative” (Daiichi Sankyo Company, Limited, priority 2009, dated 2015).

Assays:
KK mice = experiment: Hypoglycemic effect (glucose lowering rate) in diabetic KK mice; assay type: in vivo; conditions: male KK mice, diet admixture containing 0.03% of the compound, three days, plasma glucose on the 3rd day vs control group; for inhibition in vivo at 0.03 % in diet: Mus musculus, po, 72 h
Description: Six-week-old male KK mice were purchased from CLEA Japan, Inc. and then were fed until 15 to 20 weeks old to develop diabetes. The mice were individually fed during the adaptation period and the test period, and water and feed (FR2, Funabashi Farm) were freely ingested.
At the start of the experiment, after body weight measurement, blood was collected from the tail vein of the mice into a heparin-coated glass tube and centrifuged, and then plasma was separated. The glucose level in the plasma was measured by Glucoloader GXT (A&T Corp.), and individuals having a plasma glucose level of about 350 mg/dl or more were selected. The mice were grouped, each group having 3 to 4 mice, to make the average body weight and the average plasma glucose level similar. Each compound was administered to a compound group with a diet admixture containing 0.03% of the compound. A separate group in which the mice were fed only with diet was a control group.
The experiment period (drug administration period) was three days. The grouping day was the 0th day. On the 3rd day, the body weight was measured and blood was collected from the tail vein to measure the plasma glucose level.
The glucose lowering rate was determined by the following formula. Glucose lowering rate=[(Control group plasma glucose level−Compound-administered group plasma glucose level)/Control group plasma glucose level]×100

[1] = target: T1, GAL4-PPARγ chimeric receptor (Homo sapiens, UniProt P37231); experiment: PPARγ activation effect/modulator activity, GAL4-PPARγ luciferase reporter assay in COS-7 cells; assay type: cell-based; conditions: for Emax: COS-7, maximum luciferase activity, positive control rosiglitazone = 100%, DMSO control = 0%
T1 construct: expressed in transfected cells; host or cells: COS-7 (monkey kidney-derived cell line)
Method: A test was carried out according to the reporter assay method with reference to a report by Kliewer et al. (Journal of Biological Chemistry, 1995, Vol. 270 (22), p. 12953-12956) as a method for measuring the ability of a compound to activate PPARγ (hereinafter PPARγ activation effect/modulator activity). Commercially available reagents and kits were used according to the attached instructions. The details will be shown below. The ligand-binding domain of human PPARγ (corresponding to about 300 amino acids at the carboxy end) was bound to the DNA-binding domain of the yeast transcription factor GAL4 (corresponding to 147 amino acids at the amino end) with reference to the report by Kliewer et al. to prepare a gene expressing a GAL4-PPARγ receptor. The plasmid pM-PPARγ obtained by the above operation includes the nucleotide sequence represented by SEQ ID NO: 4 of the Sequence Listing and encodes an amino acid sequence represented by SEQ ID NO: 5 of the Sequence Listing containing amino acids 1 to 147 of the yeast transcription factor GAL4 at the amino end and containing amino acids 175 to 475 of human PPARγ and a stop codon at the carboxy end. The plasmid is a gene that can express a GAL4-PPARγ chimeric receptor in mammalian cells. The previously acquired plasmid pM-PPARγ and the plasmid pFR-Luc purchased from Stratagene Cloning Systems, Inc. were dissolved in deionised water at a concentration of 1 mg/mL each. […] COS-7 cells were transfected with 4.8 micrograms per flask of the plasmid pM-PPARγ and 19.2 μg per flask of the plasmid pFR-Luc using Lipofectamine 2000 transfection reagent (manufactured by Invitrogen Corporation), and the cells were cultured overnight. […] The test compound was dissolved in dimethyl sulfoxide at a concentration of 4 mM. The solution was serially diluted 3.3-fold with dimethyl sulfoxide to prepare solutions of the compound at concentrations up to 400 nM. Dimethyl sulfoxide was prepared for the control group. Rosiglitazone dissolved in dimethyl sulfoxide at a concentration of 4 mM was prepared for the positive control group. They were diluted 20-fold with the medium, and 5 μL of the dilution was added to the wells in which the cells were grown. […] After the addition, the cells were cultured overnight. On the following day, the medium was removed, and Luc Lite (manufactured by PerkinElmer Inc.) was prepared according to the attached document and added at 50 microliters per well. […] The amount of luminescence in each well was measured as luciferase activity using Analyst (Molecular Devices) for 0.5 second. A dose-dependent curve was drawn.

T1 sequence (P37231 with tags, fused parts or gaps): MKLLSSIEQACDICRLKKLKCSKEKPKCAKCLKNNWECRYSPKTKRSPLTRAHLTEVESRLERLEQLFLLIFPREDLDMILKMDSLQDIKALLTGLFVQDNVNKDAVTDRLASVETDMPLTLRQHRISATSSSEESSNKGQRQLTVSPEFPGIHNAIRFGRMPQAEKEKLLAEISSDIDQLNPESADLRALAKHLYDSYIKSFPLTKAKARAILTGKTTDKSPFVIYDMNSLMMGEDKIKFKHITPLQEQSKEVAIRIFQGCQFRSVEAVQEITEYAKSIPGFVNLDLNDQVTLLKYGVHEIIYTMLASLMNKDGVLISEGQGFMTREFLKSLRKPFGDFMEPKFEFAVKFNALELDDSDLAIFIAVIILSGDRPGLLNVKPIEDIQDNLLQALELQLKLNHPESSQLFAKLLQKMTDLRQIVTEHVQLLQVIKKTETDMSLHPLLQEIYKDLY

Row | EC50 [1] | Emax [1] | Structure (SMILES) | inhibition in vivo at 0.03 % in diet (KK mice) | Glucose lowering rate (%) (KK mice)
1 |  |  | COc1cc(Oc2ccc3nc(COc4cccc(C(=O)O)c4)n(C)c3c2)cc(C)n1 [Example 17, 3-({6-[(2-Methoxy-6-methylpyridin-4-yl)oxy]-1-methyl-1H-benzimidazol-2-yl}methoxy)benzoic acid] | 36% | 
2 |  |  | Cc1cnc(Oc2ccc3nc(COc4cccc(C(=O)O)c4)n(C)c3c2)c(C)c1 [Example 10, 3-({6-[(3,5-Dimethylpyridin-2-yl)oxy]-1-methyl-1H-benzimidazol-2-yl}methoxy)benzoic acid] |  | 37%
3 | 180 nM | 73% | CCc1cccnc1Oc1ccc2nc(COc3cccc(C(=O)O)c3)n(C)c2c1 [Example 2, 3-({6-[(3-Ethylpyridin-2-yl)oxy]-1-methyl-1H-benzimidazol-2-yl}methoxy)benzoic acid] | 31% | 
4 |  |  | Cn1c(COc2cccc(C(=O)O)c2)nc2ccc(Oc3cccnc3)cc21 [Compound A, reference compound] | 20% | 
5 | 24 nM | 79% | Cn1c(COc2cccc(C(=O)O)c2)nc2ccc(Oc3ncc(Cl)cc3F)cc21 [Example 5, 3-({6-[(5-Chloro-3-fluoropyridin-2-yl)oxy]-1-methyl-1H-benzimidazol-2-yl}methoxy)benzoic acid] | 34% | 
6 |  |  | COc1cc(Oc2ccc3nc(COc4cccc(C(=O)O)c4)n(C)c3c2)ccn1 [Example 16, 3-({6-[(2-Methoxypyridin-4-yl)oxy]-1-methyl-1H-benzimidazol-2-yl}methoxy)benzoic acid] | 17% | 
7 |  |  | Cc1ccc(Oc2ccc3nc(COc4cccc(C(=O)O)c4)n(C)c3c2)nc1C [Example 4, 3-({6-[(5,6-Dimethylpyridin-2-yl)oxy]-1-methyl-1H-benzimidazol-2-yl}methoxy)benzoic acid] |  | 28%
8 |  |  | Cc1cnc(Oc2ccc3nc(COc4cccc(C(=O)O)c4)n(C)c3c2)c(F)c1 [Example 9, 3-({6-[(3-Fluoro-5-methylpyridin-2-yl)oxy]-1-methyl-1H-benzimidazol-2-yl}methoxy)benzoic acid] |  | 41%
9 |  |  | Cc1cc(F)cnc1Oc1ccc2nc(COc3cccc(C(=O)O)c3)n(C)c2c1 [Example 8, 3-({6-[(5-Fluoro-3-methylpyridin-2-yl)oxy]-1-methyl-1H-benzimidazol-2-yl}methoxy)benzoic acid] |  | 33%
10 |  |  | Cc1cc(C)c(Oc2ccc3nc(COc4cccc(C(=O)O)c4)n(C)c3c2)nc1C [Example 15, 3-({1-Methyl-6-[(3,5,6-trimethylpyridin-2-yl)oxy]-1H-benzimidazol-2-yl}methoxy)benzoic acid] |  | 30%
